Test results reported in patent publication US6365100B1, “Polymethylenepolyamine dipropionamides as environmentally safe inhibitors of the carbon corrosion of iron” (CECA, S.A., priority 1997, dated 2002).

Assays:
[1] = Carbonic corrosion-inhibitory efficiency by polarization resistance in CO2-saturated NACE-type solution; conditions: 25° C., reading after 6 hours
Description: The experimental procedures intended to evaluate the corrosion-inhibitory efficiencies in carbon dioxide-saturated medium of the products used (A, B and C of Example 1) are described in this example. In order to simulate the corrosive medium, a solution of NACE type containing 50 g/l of NaCl and 0.25 mg/l of acetic acid, saturated by continuously bubbling CO2 through, depending on the case, and with inhibitor added or not added, is used.
The process is performed in a thermostatically regulated 600 ml Pyrex cell including, besides a gas inlet and outlet, three electrodes coupled to the cell by ground joints, namely a carbon-steel working electrode whose surface of contact with the corrosive solution is 1 cm^2, a saturated calomel reference electrode and a platinum counterelectrode having a very large surface of contact with the corrosive solution. 500 ml of the corrosive solution is placed in the cell, as control or with inhibitor added, after which the counterelectrode and the reference electrode are put in place. The solution is de-aerated by bubbling nitrogen through for one hour and is then saturated with CO2 by bubbling for at least one hour. In order to ensure good saturation with CO2, this gas is left to bubble through throughout the experiment.
The rate of corrosion Vcorr is measured by a method of measuring polarization resistance, which is known in the art. The corrosion rate reading is taken after stabilization for 6 hours.
The percentage of protection (%P) which allows the corrosion-inhibitory efficiency of the test product to be expressed is given by the relationship:
%P={(V^0corr−V^icorr)/V^0corr}×100
where V^0corr=rate of corrosion without inhibitor
V^icorr=rate of corrosion in the presence of a dose of inhibitor.
Table II collates the percentages of protection at room temperature (25° C.) as a function of the nature of the polymethylenepolyaminodipropionamides used and their dose.

[2] = test system: Photobacterium phosphoreum; assay: Microtox bacterial ecotoxicity test (AFNOR NF T90-320); format: cell-based; conditions: lethal concentration to destroy 50% of the population in 15 minutes
Description: (§1) The ecotoxicity measurements for various polymethylenepolyaminedipropionamides were carried out on a bacterium (Photobacterium phosphoreum) and on an alga (Skeletonema costatum) . The bacterial test is the Microtox test carried out according to AFNOR standard NF T90-320. The toxicities on Skeletonema costatum are determined according to the method ISO/DIS 10253. The Microtox toxicity is expressed as LC50 (lethal concentration in mg/l to destroy 50% of the population in 15 minutes). On Skeletonema costatum, the toxicity is expressed as EC50 (effective concentration in mg/l to inhibit the growth of 50% of the population in 72 hours).

Skeletonema costatum = assay: Algal ecotoxicity test (ISO/DIS 10253); format: cell-based; conditions: concentration to inhibit the growth of 50% of the population in 72 hours
Description: as §1

SMILES: NC(=O)CCNCCNCCNCCC(N)=O [Molecule A, H2NCO—(CH2)2—NH—[—(CH2)2 —NH—]2—(CH2)2—CONH2 (RN 92009-86-4)]
- PERCENTAGE OF PROTECTION (%) ([1]; dose 10 ppm): 24%
- PERCENTAGE OF PROTECTION (%) ([1]; dose 20 ppm): 44%
- PERCENTAGE OF PROTECTION (%) ([1]; dose 50 ppm): 48%
- PERCENTAGE OF PROTECTION (%) ([1]; dose 100 ppm): 53%
- Toxicity Microtox (LC50) [2]: 128 µg/mL

SMILES: NC(=O)CCNCCNCCNCCNCCC(N)=O [Molecule B, H2NCO—(CH2)2—NH—[—(CH2)2 —NH—]3—CH2)2—CONH2]
- PERCENTAGE OF PROTECTION (%) ([1]; dose 10 ppm): 34%
- PERCENTAGE OF PROTECTION (%) ([1]; dose 20 ppm): 43%
- PERCENTAGE OF PROTECTION (%) ([1]; dose 50 ppm): 48%
- PERCENTAGE OF PROTECTION (%) ([1]; dose 100 ppm): 56%
- Toxicity Microtox (LC50) [2]: 104 µg/mL

SMILES: NC(=O)CCNCCCNCCNCCCNCCC(N)=O [Molecule C, H2NCO—(CH2)2—NH—(CH2)3—NH—(CH2)2—NH—(CH2)3—NH—(CH2)2—CONH2]
- PERCENTAGE OF PROTECTION (%) ([1]; dose 10 ppm): 63%
- PERCENTAGE OF PROTECTION (%) ([1]; dose 20 ppm): 70%
- PERCENTAGE OF PROTECTION (%) ([1]; dose 50 ppm): 73%
- PERCENTAGE OF PROTECTION (%) ([1]; dose 100 ppm): 82%
- Toxicity Skeletonema costatum (EC50) (Skeletonema costatum): 5 to 10 µg/mL
- Toxicity Microtox (LC50) [2]: 127 µg/mL
